The results in this text go back to paper PMC9940855, “First-in-Class Dual Hybrid Carbonic Anhydrase Inhibitors and Transient Receptor Potential Vanilloid 1 Agonists Revert Oxaliplatin-Induced Neuropathy” (Journal of Medicinal Chemistry, 2023).

One assay addresses hCA I (Homo sapiens, UniProt P00915). Conditions: read-out: KI hCA I; stopped-flow CO2 hydrase assay; mean from three different assays, errors ±5–10%.
In a further assay the target is hCA VII (Homo sapiens, UniProt P43166). As to conditions: read-out: KI hCA VII; stopped-flow CO2 hydrase assay; mean from three different assays, errors ±5–10%.
The target in the next assay is T1, hCA IX (Homo sapiens, UniProt Q16790).
T1 construct: made in house
Format: biochemical.

The next assay concerns the target hCA IV (Homo sapiens, UniProt P22748). Conditions: read-out: KI hCA IV; stopped-flow CO2 hydrase assay; mean from three different assays, errors ±5–10%.
A further assay concerns the target hCA XII (Homo sapiens, UniProt O43570). Conditions: read-out: KI hCA XII; stopped-flow CO2 hydrase assay; mean from three different assays, errors ±5–10%.

Chain of hCA VII (P43166 whole entry): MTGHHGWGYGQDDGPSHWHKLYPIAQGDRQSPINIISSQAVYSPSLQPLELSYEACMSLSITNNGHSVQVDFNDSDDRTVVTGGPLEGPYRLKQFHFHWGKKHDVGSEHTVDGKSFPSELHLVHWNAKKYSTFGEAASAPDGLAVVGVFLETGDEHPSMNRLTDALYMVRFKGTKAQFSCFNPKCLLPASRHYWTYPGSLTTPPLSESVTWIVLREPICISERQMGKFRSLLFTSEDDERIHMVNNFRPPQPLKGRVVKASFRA
Chain of hCA I (P00915 whole entry): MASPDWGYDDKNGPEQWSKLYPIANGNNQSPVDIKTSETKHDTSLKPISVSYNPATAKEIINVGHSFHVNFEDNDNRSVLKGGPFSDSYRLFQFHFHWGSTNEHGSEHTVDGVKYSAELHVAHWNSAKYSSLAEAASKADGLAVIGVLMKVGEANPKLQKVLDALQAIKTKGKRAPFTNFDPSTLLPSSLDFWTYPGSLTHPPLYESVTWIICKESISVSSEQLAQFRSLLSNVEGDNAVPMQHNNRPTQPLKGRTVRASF
Chain of hCA XII (O43570 25-354): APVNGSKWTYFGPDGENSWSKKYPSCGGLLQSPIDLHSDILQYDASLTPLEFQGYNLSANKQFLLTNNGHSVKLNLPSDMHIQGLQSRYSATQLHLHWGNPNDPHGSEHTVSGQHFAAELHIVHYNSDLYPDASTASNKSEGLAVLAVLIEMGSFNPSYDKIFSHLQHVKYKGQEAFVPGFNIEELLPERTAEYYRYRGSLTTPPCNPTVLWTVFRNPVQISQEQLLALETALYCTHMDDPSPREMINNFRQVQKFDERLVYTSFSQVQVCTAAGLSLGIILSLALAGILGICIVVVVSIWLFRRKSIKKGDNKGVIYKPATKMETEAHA
Chain of hCA IV (P22748 19-312): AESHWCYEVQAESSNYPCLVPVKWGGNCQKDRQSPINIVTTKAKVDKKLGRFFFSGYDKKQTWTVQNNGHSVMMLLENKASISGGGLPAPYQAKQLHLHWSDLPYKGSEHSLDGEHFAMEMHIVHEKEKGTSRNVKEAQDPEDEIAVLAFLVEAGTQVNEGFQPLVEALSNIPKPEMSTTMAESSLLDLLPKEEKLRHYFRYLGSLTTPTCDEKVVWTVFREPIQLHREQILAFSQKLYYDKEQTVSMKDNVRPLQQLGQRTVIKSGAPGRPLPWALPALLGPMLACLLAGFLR

As usually defined, the Ki is a measure of affinity in units of concentration, obtained from inhibition or displacement. As to `NS(=O)(=O)c1ccc(N2CCC(NC(=O)Nc3ccc(Cl)c(C(F)(F)F)c3)C2)nc1` (stereo in doubt) [10b, (R)-6-(3-(3-(4-Chloro-3-(trifluoromethyl)phenyl)ureido)pyrrolidin-1-yl)pyridine-3-sulfonamide], the Ki on hCA I is 0.707 µM; on hCA VII it was 0.0156 µM; on hCA IX, 0.0775 µM; at hCA IV, 8.52 µM.

As to `NS(=O)(=O)c1ccc(N2CC[C@@H](NC(=S)Nc3ccc(F)cc3)C2)nc1` [8a, (R)-6-(3-(3-(4-Fluorophenyl)thioureido)pyrrolidin-1-yl)pyridine-3-sulfonamide], the Ki on hCA VII is 0.0086 µM; on hCA IX, 0.0308 µM; at hCA XII it was 0.0395 µM; at hCA IV, 3.12 µM.

On to `NS(=O)(=O)c1ccc(N2CC[C@H](NC(=S)Nc3ccc(F)cc3)C2)nc1` [8b, (S)-6-(3-(3-(4-Fluorophenyl)thioureido)pyrrolidin-1-yl)pyridine-3-sulfonamide], for which the inhibition constant (Ki) at hCA VII stood at 0.0026 µM; on hCA IX, 0.0273 µM; on hCA XII, 0.0354 µM; at hCA IV, 2.69 µM.

In the case of `NS(=O)(=O)c1ccc(N2CC[C@@H](NC(=S)Nc3ccccc3)C2)nc1` [9a, (R)-6-(3-(3-Phenylthioureido)pyrrolidin-1-yl)pyridine-3-sulfonamide], the Ki is 0.164 µM at hCA I; 0.0085 µM on hCA VII; 0.0255 µM at hCA IX; 0.0593 µM at hCA XII; 3.73 µM on hCA IV.

As for `NS(=O)(=O)c1ccc(N2CC[C@H](NC(=S)Nc3ccccc3)C2)nc1` [9b, (S)-6-(3-(3-Phenylthioureido)pyrrolidin-1-yl)pyridine-3-sulfonamide], the Ki at hCA I was 0.321 µM; at hCA VII, 0.0116 µM; at hCA IX it was 0.0541 µM; on hCA XII, 0.0234 µM; on hCA IV it was 9.48 µM.

For `NS(=O)(=O)c1ccc(N2CC[C@H](NC(=O)Nc3ccccc3F)C2)nc1` [11b, (S)-6-(3-(3-(2-Fluorophenyl)ureido)pyrrolidin-1-yl)pyridine-3-sulfonamide], the Ki worked out at 0.476 µM on hCA I, 0.0116 µM at hCA VII and 0.0439 µM on hCA XII.

In the case of `NS(=O)(=O)c1ccc(N2CC[C@H](NC(=O)Nc3ccccc3Cl)C2)nc1` [12b, (S)-6-(3-(3-(2-Chlorophenyl)ureido)pyrrolidin-1-yl)pyridine-3-sulfonamide], the Ki at hCA I came out at 0.393 µM; on hCA VII, 0.0009 µM; at hCA IX, 0.0229 µM; on hCA XII, 0.0417 µM; at hCA IV it was 2.03 µM.

On to `NS(=O)(=O)c1ccc(N2CC[C@H](NC(=O)Nc3ccc(Oc4ccccc4)cc3)C2)nc1` [13b, (S)-6-(3-(3-(4-Phenoxyphenyl)ureido)pyrrolidin-1-yl)pyridine-3-sulfonamide], for which the results for the inhibition constant (Ki) at hCA VII, on hCA IX and at hCA XII were 0.052 µM, 0.0898 µM and 0.0899 µM, respectively.

In the case of `NS(=O)(=O)c1ccc(N2CC[C@@H](NC(=O)Nc3cc(C(F)(F)F)cc(C(F)(F)F)c3)C2)nc1` [16a, (R)-6-(3-(3-(3,5-Bis(trifluoromethyl)phenyl)ureido)pyrrolidin-1-yl)pyridine-3-sulfonamide], the inhibitory constant (Ki) on hCA I came out at 0.903 µM; at hCA VII, 0.0408 µM; on hCA IX, 1.44 µM; at hCA XII, 0.0379 µM; at hCA IV it was 5.16 µM.

Consider `NS(=O)(=O)c1ccc(N2CC[C@H](NC(=O)Nc3cc(C(F)(F)F)cc(C(F)(F)F)c3)C2)nc1` [16b, (S)-6-(3-(3-(3,5-Bis(trifluoromethyl)phenyl)ureido)pyrrolidin-1-yl)pyridine-3-sulfonamide], for which the Ki at hCA I was 0.625 µM; at hCA VII it was 0.0083 µM; on hCA IX, 0.0549 µM; on hCA XII it was 0.0094 µM; at hCA IV, 2.5 µM.

For the molecule `NS(=O)(=O)c1cccc(NC(=S)N[C@H]2CCN(c3ccc(C(F)(F)F)cn3)C2)c1` [40b, (S)-3-(3-(1-(5-(Trifluoromethyl)pyridin-2-yl)pyrrolidin-3-yl)thioureido)benzenesulfonamide], the results for the inhibitory constant (Ki) on hCA I, at hCA VII and at hCA IX were 0.413 µM, 0.0142 µM and 0.0079 µM, respectively.
